Measured values taken from US10131652B2, “Pyrimidinyloxy benzene derivatives as herbicides” (E. I. DU PONT DE NEMOURS AND COMPANY, priority 2014, dated 2018).

Tests used:
Assay in all cases: Test D pre-/postemergence plant response
Assay type in all cases: in vivo
[1] = test system: johnsongrass (Sorghum halepense)
Excerpt: (§1) Seeds of plant species selected from blackgrass (Alopecurus myosuroides), Italian ryegrass (Lolium multiflorum), winter wheat (Triticum aestivum), galium (catchweed bedstraw, Galium aparine), corn (Zea mays), large (Lg) crabgrass (Digitaria sanguinalis), giant foxtail (Setaria faberii), johnsongrass (Sorghum halepense), lambsquarters (Chenopodium album), morningglory (Ipomoea coccinea), yellow nutsedge (Cyperus esculentus), pigweed (Amaranthus retroflexus), ragweed (common ragweed, Ambrosia elatior), soybean (Glycine max), bamyardgrass (Echinochloa crus-galli), oilseed rape (Brassica napus), waterhemp (common waterhemp, Amaranthus rudis), and velvetleaf (Abutilon theophrasti) were planted into a blend of loam soil and sand and treated preemergence with test chemicals formulated in a non-phytotoxic solvent mixture which included a surfactant. At the same time, plants selected from these crop and weed species and also kochia (Kochia scoparia), wild oat (Avena fatua), and chickweed (common chickweed, Stellaria media) were planted in pots containing Redi-Earth® planting medium (Scotts Company, 14111 Scottslawn Road, Marysville, Ohio 43041) comprising spaghnum peat moss, vermiculite, wetting agent and starter nutrients and treated with postemergence applications of test chemicals formulated in the same manner. Plants ranged in height from 2 to 18 cm (1- to 4-leaf stage) for postemergence treatments. Treated plants and controls were maintained in a greenhouse for 13 to 15 days, after which time all species were compared to controls and visually evaluated. Plant response ratings, summarized in Table D, are based on a scale of 0 to 100 where 0 is no effect and 100 is complete control. A dash (-) response means no test result.

[2] = test system: galium (catchweed bedstraw, Galium aparine)
Excerpt: as §1

[3] = test system: lambsquarters (Chenopodium album)
Excerpt: as §1

[4] = test system: Italian ryegrass (Lolium multiflorum)
Excerpt: as §1

[5] = test system: soybean (Glycine max)
Excerpt: as §1

[6] = test system: large (Lg) crabgrass (Digitaria sanguinalis)
Excerpt: as §1

[7] = test system: corn (Zea mays)
Excerpt: as §1

[8] = test system: waterhemp (common waterhemp, Amaranthus rudis)
Excerpt: as §1

[9] = test system: blackgrass (Alopecurus myosuroides)
Excerpt: as §1

[10] = test system: velvetleaf (Abutilon theophrasti)
Excerpt: as §1

[11] = test system: yellow nutsedge (Cyperus esculentus)
Excerpt: as §1

[12] = test system: oilseed rape (Brassica napus)
Excerpt: as §1

[13] = test system: barnyardgrass (Echinochloa crus-galli)
Excerpt: as §1

[14] = test system: pigweed (Amaranthus retroflexus)
Excerpt: as §1

[15] = test system: giant foxtail (Setaria faberii)
Excerpt: as §1

[16] = test system: morningglory (Ipomoea coccinea)
Excerpt: as §1

[17] = test system: winter wheat (Triticum aestivum)
Excerpt: as §1

[18] = test system: ragweed (common ragweed, Ambrosia elatior)
Excerpt: as §1

[19] = Postemergence, 16 g ai/ha, scale 0 to 100 (0 no effect, 100 complete control)
[20] = Postemergence, 31 g ai/ha, scale 0 to 100 (0 no effect, 100 complete control)
[21] = Postemergence, 62 g ai/ha, scale 0 to 100, 0 no effect, 100 complete control
[22] = Postemergence, 125 g ai/ha, scale 0 to 100, 0 no effect, 100 complete control
[23] = Preemergence, 16 g ai/ha, scale 0 to 100 (0 no effect, 100 complete control)
[24] = Preemergence, 31 g ai/ha, scale 0 to 100 (0 no effect, 100 complete control)
[25] = Preemergence, 62 g ai/ha, scale 0 to 100 (0 no effect, 100 complete control)

Cc1cc(-c2ccccc2Oc2ncc(Cl)cn2)no1 [Compound 60]
Johnsongrass plant response rating [1, 19]: 0 | Johnsongrass plant response rating [1, 20]: 0 | Plant response rating, Johnsongrass [1, 21]: 0 | Plant response rating, Johnsongrass [1, 22]: 5 | Plant response rating (scale 0 to 100), Johnsongrass ([1]; Preemergence, 125 g ai/ha): 45 | Plant response rating, Johnsongrass [1, 23]: 0 | Plant response rating, Johnsongrass [1, 24]: 0 | Plant response rating, Johnsongrass [1, 25]: 15 | Galium plant response rating [2, 19]: 30 | Galium plant response rating [2, 20]: 40 | Plant response rating, Galium [2, 21]: 50 | Plant response rating, Galium [2, 22]: 65 | Plant response rating (scale 0 to 100), Galium ([2]; Preemergence, 125 g ai/ha): 98 | Plant response rating, Galium [2, 23]: 98 | Plant response rating, Galium [2, 24]: 85 | Plant response rating, Galium [2, 25]: 100 | Lambsquarters plant response rating [3, 19]: 20 | Lambsquarters plant response rating [3, 20]: 20 | Plant response rating, Lambsquarters [3, 21]: 55 | Plant response rating, Lambsquarters [3, 22]: 75 | Plant response rating (scale 0 to 100), Lambsquarters ([3]; Preemergence, 125 g ai/ha): 100 | Plant response rating, Lambsquarters [3, 23]: 10 | Plant response rating, Lambsquarters [3, 24]: 80 | Plant response rating, Lambsquarters [3, 25]: 85 | Ryegrass, Italian plant response rating [4, 19]: 0 | Ryegrass, Italian plant response rating [4, 20]: 0 | Plant response rating, Ryegrass, Italian [4, 21]: 0 | Plant response rating, Ryegrass, Italian [4, 22]: 0 | Plant response rating (scale 0 to 100), Ryegrass, Italian ([4]; Preemergence, 125 g ai/ha): 30 | Plant response rating, Ryegrass, Italian [4, 23]: 0 | Plant response rating, Ryegrass, Italian [4, 24]: 0 | Plant response rating, Ryegrass, Italian [4, 25]: 0 | Soybean plant response rating [5, 19]: 65 | Soybean plant response rating [5, 20]: 65 | Plant response rating, Soybean [5, 21]: 95 | Plant response rating, Soybean [5, 22]: 95 | Plant response rating (scale 0 to 100), Soybean ([5]; Preemergence, 125 g ai/ha): 95 | Plant response rating, Soybean [5, 23]: 35 | Plant response rating, Soybean [5, 24]: 55 | Plant response rating, Soybean [5, 25]: 65 | Crabgrass, Large plant response rating [6, 19]: 5 | Crabgrass, Large plant response rating [6, 20]: 5 | Plant response rating, Crabgrass, Large [6, 21]: 5 | Plant response rating, Crabgrass, Large [6, 22]: 5 | Plant response rating (scale 0 to 100), Crabgrass, Large ([6]; Preemergence, 125 g ai/ha): 100 | Plant response rating, Crabgrass, Large [6, 23]: 5 | Plant response rating, Crabgrass, Large [6, 24]: 55 | Plant response rating, Crabgrass, Large [6, 25]: 100 | Corn plant response rating [7, 19]: 0 | Corn plant response rating [7, 20]: 0 | Plant response rating, Corn [7, 21]: 5 | Plant response rating, Corn [7, 22]: 5 | Plant response rating (scale 0 to 100), Corn ([7]; Preemergence, 125 g ai/ha): 5 | Plant response rating, Corn [7, 23]: 5 | Plant response rating, Corn [7, 24]: 0 | Plant response rating, Corn [7, 25]: 0 | Waterhemp plant response rating [8, 19]: 15 | Waterhemp plant response rating [8, 20]: 30 | Plant response rating, Waterhemp [8, 21]: 50 | Plant response rating, Waterhemp [8, 22]: 70 | Plant response rating (scale 0 to 100), Waterhemp ([8]; Preemergence, 125 g ai/ha): 100 | Plant response rating, Waterhemp [8, 23]: 80 | Plant response rating, Waterhemp [8, 24]: 100 | Plant response rating, Waterhemp [8, 25]: 100 | Blackgrass plant response rating [9, 19]: 0 | Blackgrass plant response rating [9, 20]: 0 | Plant response rating, Blackgrass [9, 21]: 5 | Plant response rating, Blackgrass [9, 22]: 20 | Plant response rating (scale 0 to 100), Blackgrass ([9]; Preemergence, 125 g ai/ha): 70 | Plant response rating, Blackgrass [9, 23]: 0 | Plant response rating, Blackgrass [9, 24]: 5 | Plant response rating, Blackgrass [9, 25]: 10 | Velvetleaf plant response rating [10, 19]: 40 | Velvetleaf plant response rating [10, 20]: 50 | Plant response rating, Velvetleaf [10, 21]: 65 | Plant response rating, Velvetleaf [10, 22]: 80 | Plant response rating (scale 0 to 100), Velvetleaf ([10]; Preemergence, 125 g ai/ha): 100 | Plant response rating, Velvetleaf [10, 23]: 60 | Plant response rating, Velvetleaf [10, 24]: 100 | Plant response rating, Velvetleaf [10, 25]: 100 | Nutsedge, Yellow plant response rating [11, 19]: 0 | Nutsedge, Yellow plant response rating [11, 20]: 0 | Plant response rating, Nutsedge, Yellow [11, 21]: 0 | Plant response rating, Nutsedge, Yellow [11, 22]: 5 | Plant response rating (scale 0 to 100), Nutsedge, Yellow ([11]; Preemergence, 125 g ai/ha): 5 | Plant response rating, Nutsedge, Yellow [11, 23]: 0 | Plant response rating, Nutsedge, Yellow [11, 24]: 0 | Plant response rating, Nutsedge, Yellow [11, 25]: 0 | Oilseed Rape plant response rating [12, 19]: 60 | Oilseed Rape plant response rating [12, 20]: 50 | Plant response rating, Oilseed Rape [12, 21]: 65 | Plant response rating, Oilseed Rape [12, 22]: 90 | Plant response rating (scale 0 to 100), Oilseed Rape ([12]; Preemergence, 125 g ai/ha): 100 | Plant response rating, Oilseed Rape [12, 23]: 80 | Plant response rating, Oilseed Rape [12, 24]: 98 | Plant response rating, Oilseed Rape [12, 25]: 90 | Barnyardgrass plant response rating [13, 19]: 0 | Barnyardgrass plant response rating [13, 20]: 0 | Plant response rating, Barnyardgrass [13, 21]: 10 | Plant response rating, Barnyardgrass [13, 22]: 10 | Plant response rating (scale 0 to 100), Barnyardgrass ([13]; Preemergence, 62 g ai/ha): 30 | Plant response rating (scale 0 to 100), Barnyardgrass ([13]; Preemergence, 125 g ai/ha): 75 | Plant response rating, Barnyardgrass [13, 23]: 0 | Plant response rating, Barnyardgrass [13, 24]: 5 | Pigweed plant response rating [14, 19]: 20 | Pigweed plant response rating [14, 20]: 35 | Plant response rating, Pigweed [14, 21]: 55 | Plant response rating, Pigweed [14, 22]: 70 | Plant response rating (scale 0 to 100), Pigweed ([14]; Preemergence, 125 g ai/ha): 100 | Plant response rating, Pigweed [14, 23]: 75 | Plant response rating, Pigweed [14, 24]: 100 | Plant response rating, Pigweed [14, 25]: 100 | Foxtail, Giant plant response rating [15, 19]: 0 | Foxtail, Giant plant response rating [15, 20]: 5 | Plant response rating, Foxtail, Giant [15, 21]: 5 | Plant response rating, Foxtail, Giant [15, 22]: 10 | Plant response rating (scale 0 to 100), Foxtail, Giant ([15]; Preemergence, 125 g ai/ha): 95 | Plant response rating, Foxtail, Giant [15, 23]: 0 | Plant response rating, Foxtail, Giant [15, 24]: 5 | Plant response rating, Foxtail, Giant [15, 25]: 40 | Morningglory plant response rating [16, 19]: 0 | Morningglory plant response rating [16, 20]: 40 | Plant response rating, Morningglory [16, 21]: 25 | Plant response rating, Morningglory [16, 22]: 40 | Plant response rating (scale 0 to 100), Morningglory ([16]; Preemergence, 125 g ai/ha): 20 | Plant response rating, Morningglory [16, 23]: 0 | Plant response rating, Morningglory [16, 24]: 0 | Plant response rating, Morningglory [16, 25]: 10 | Wheat plant response rating [17, 19]: 0 | Wheat plant response rating [17, 20]: 5 | Plant response rating, Wheat [17, 21]: 5 | Plant response rating, Wheat [17, 22]: 20 | Plant response rating (scale 0 to 100), Wheat ([17]; Preemergence, 125 g ai/ha): 0 | Plant response rating, Wheat [17, 23]: 0 | Plant response rating, Wheat [17, 24]: 0 | Plant response rating, Wheat [17, 25]: 0 | Ragweed plant response rating [18, 19]: 15 | Ragweed plant response rating [18, 20]: 30 | Plant response rating, Ragweed [18, 21]: 40 | Plant response rating, Ragweed [18, 22]: 70 | Plant response rating (scale 0 to 100), Ragweed ([18]; Preemergence, 125 g ai/ha): 90 | Plant response rating, Ragweed [18, 23]: 15 | Plant response rating, Ragweed [18, 24]: 55 | Plant response rating, Ragweed [18, 25]: 65
